Assays:
[1] = test system: human primary hepatocytes; assay: MCP1/CCL2 secretion in primary human hepatocytes exposed to free fatty acids + TNFα (ELISA); format: cell-based; details: primary human hepatocytes from two healthy donors, 24 h
Protocol: Hepatocyte lipotoxicity appears to be a central driver of hepatic cellular injury via oxidative stress and endoplasmic reticulum (ER) stress. The ability of amino acids to influence steatosis (lipid accumulation) and inflammation in hepatocytes was assessed using human primary hepatocytes (Lonza, TRL).
Primary hepatocytes lot nos. from two healthy human donors were seeded on day 0 at density of 6e04 cells in 96 well optical microplates (Thermofisher) in hepatocyte plating media (William's E medium (Gibco) supplemented with 10% heat-inactivated FBS (Atlanta Bio), 2 mM Glutamax (Gibco), 1×ITS plus (R&D systems), and 0.2% Primocin (InVivoGen) and incubated for 6 hours at 37° C., 5% CO2. After 6 hours, cells were washed twice with 150 ul William's E medium and incubated overnight at 37° C., 5% CO2 with serum-free hepatocytes culture media (Hepatocytes defined medium (Corning)) supplemented with 5 ug human recombinant EGF (Corning), 2 mM Glutamax (Gibco), and 1× Penicillin/Streptomycin. On day 1, cells were washed twice with 150 μL per well William's E medium (Gibco) and incubated for 24h in the hepatocyte culture media in the same conditions described above.
On day 2, cells were washed twice with 150 ul DPBS 1× (Gibco) and maintained in amino acid-free WEM (US Biologicals) containing a defined custom amino acid concentration based on the mean physiological concentrations in blood. The values are published in the Human Metabolome Database (Wishart D S, Tzur D, Knox C, et al., HMDB: the Human Metabolome Database. Nucleic Acids Res. 2007 January; 35(Database issue):D521-6. 17202168; which is hereby incorporated by reference in its entirety). This custom media is supplemented with 11 mM Glucose, 0.272 mM Sodium Pyruvate, and a dose curve of defined amino acid compositions (i.e., vehicle, LIVRQ+N-acetylcysteine, LIVRQ, RQ+N-acetylcysteine, N-acetylcysteine alone, LIV, or individually with L-Leucine, L-Isoleucine, L-Valine, L-Arginine, L-Glutamine, and L-Cysteine) at various ranges of concentrations. Cells were maintained in this defined media for 24 hours at 37° C., 5% CO2.
After pre-treatment, cells were exposed to free fatty acids (FFA) at 250 uM with a ratio of 2:1 (Oleate:Palmitate) supplemented with TNF-α (Thermofisher) at 1 ng/ml or vehicle. Cells were incubated with the FFAs mixture and the different amino acids combinations for 24 hours at 37° C., 5% CO2. After 24 hours incubation, media was removed for cytokine analysis and replaced by fresh media containing the same stimulus conditions and amino acid concentrations. Cells were incubated for an additional 48 hours for a total of 72 hours of FFA and TNFα stimulation.
Human CCL2 (MCP-1) was measured by ELISA (Human […] DuoSet ELISA, R&D Systems) at 1/5 or 1/10 dilution in 1× Reagent Diluent (Reagent Ancillary Kit 2, R&D Systems). Data were normalized to the specific per well cell density determined by nuclei count stained by Hoechst 3342 (Life technologies) in the fluorescence microscopy described below.

[2] = test system: Primary human PMBC derived macrophages; assay: LPS-induced IL-6 secretion in primary human monocyte-derived macrophages (ELISA); format: cell-based; parameters: IL-6 Measurements, Mean: unit not given here; details: for IL-6 Measurements, Mean: Donor 1, baseline subtracted values; for IL-6 Measurements Mean (baseline subtracted): LPS 0.15 ng/mL; for LPS-induced IL-6 secretion, in words: primary human monocyte-derived macrophages
Protocol: Isolation of Peripheral Blood Mononuclear Cell (PBMC) Unpurified buffy coats (Research Blood Components) were carefully poured into 50 mL centrifuge tubes and diluted with room temperature Dulbecco's Phosphate Buffered Saline (dPBS) with Calcium and Magnesium (Gibco). Diluted buffy coats were further divided into four total 50 mL centrifuge tubes at 20 mL per tube. Lymphocyte Separation Medium (Corning) was carefully pipetted to the bottom of each centrifuge tube. Mixtures were centrifuged at 850×g for 32 minutes at 20° C. with 0 deceleration and acceleration.
CD14+ cells were selected using EasySep™ Human CD14 Positive Selection Kit II ([…] Technologies). Cells were resuspended in cold EasySep™ Buffer ([…] Technologies) at 1×10^8 cells/mL. A total of 100 uL/mL EasySep™ Human CD14 Positive Selection Cocktail II was added to the cell suspension, mixed, and incubated at room temperature for 10 minutes. A total of 100 uL/mL RapidSpheres were added to the mixture and incubated at room temperature for 3 minutes after mixing, then RoboSep buffer was added to bring up the total volume to 10 mL. The mixture in a 15 mL tube was placed in magnet and incubated at room temperature for 3 minutes. Supernatant was discarded and 10 mL fresh EasySep™ buffer was added to 15 mL tube. The addition of RoboSep buffer, mixing, and discarding of supernatant was repeated two more times.
Negative and positive fractions were centrifuged at 490×g for 5 minutes at 20° C. with acceleration of 9, deceleration of 9, and resuspended in DMEM (Gibco) and 10% Heat Inactivated Fetal Bovine Serum (Atlanta Bio) and Penicillin/Streptomycin. Cells were counted and centrifuged again at 490×g for 5 minutes at 20° C. with acceleration of 9, deceleration of 9. After centrifugation, cell were resuspended in DMEM (Gibco) and 10% Heat Inactivated Fetal Bovine Serum (Atlanta Bio) and Penicillin/Streptomycin containing 500 U/mL […] and plated at 1-2×10^6 cells/mL on 10 cm tissue culture plates. Cells were kept in 37° C., 5% CO2 in between feedings/harvest.
Cells were fed every 3-4 days by removing media and unattached cells, centrifuging at 490×g for 5 minutes at 20 C with acceleration of 9, deceleration of 9, and resuspending in fresh DMEM (Gibco) and 10% Heat Inactivated Fetal Bovine Serum (Atlanta Bio) and Penicillin/Streptomycincontaining 500 U/mL GM-CSF. Resuspended cells were seeded back onto 10 cm tissue culture plates and incubated at 37° C., 5% CO2.
After complete cell attachment, culture supernatant was removed and cultures were washed 1× with 5 mL PBS. A total of 3 mL room temperature Cellstripper was added and cultures were incubated at 37° C., 5% CO2 for approximately 10 minutes until cells were rounded and beginning to detach. Cell scraper was used to completely detach cells from plate. Collected cell were spun down at 490 g for 5 min at room temperature and resuspended in 10% DMSO in Heat Inactivated Fetal Bovine Serum and immediately frozen in −80 C.
Primary human PMBC derived macrophages were seeded on day 0 at 3.0E4 cells per well in 96-well microplates (ThermoFisher) in Dulbecco's Modified Eagle Medium (DMEM) (Gibco) supplemented with penicillin-streptomycin (Hyclone) and 10% heat inactivated fetal bovine serum (HI-FBS) (Atlanta Bio) and incubated overnight at 37° C., 5% CO2. On day 1, cells were washed once with 150 uL per well DPBS (Gibco) and treated with 75 uL of: • a. Amino acid free DMEM (US Biologicals) containing a defined custom amino acid concentration based on the mean physiological concentrations in blood based on values published in the Human Metabolome Database (HMDB), with 6 mM glucose, 1 mM sodium pyruvate, 10 mM HEPES, 0.2% primocin (InVivoGen); or • b. The same medium described above with one amino acid at various concentrations including complete dropout. […]

CC(=O)N[C@@H](CS)C(=O)O [N-acetylcysteine]
MCP1/CCL2 secretion, in words [1]: significantly decrease | IL-6 Measurements, Mean ([2]; Conc. 5 X): 308.1772 | IL-6 Measurements, Mean ([2]; Conc. 10 X): −121.142 | IL-6 Measurements, Mean ([2]; Conc. 20 X): −553.802 | IL-6 Measurements, Mean ([2]; Conc. 40 X): −914.194 | IL-6 Measurements Mean (baseline subtracted) ([2]; Donor 2, Conc. 0 X (baseline)): −2.4E−15 | IL-6 Measurements Mean (baseline subtracted) ([2]; Donor 2, Conc. 20 X): −24.9999 | IL-6 Measurements Mean (baseline subtracted) ([2]; Donor 3, Conc. 0 X (baseline)): −9.5E−15 | IL-6 Measurements Mean (baseline subtracted) ([2]; Donor 3, Conc. 5 X): −70.3269 | IL-6 Measurements Mean (baseline subtracted) ([2]; Donor 3, Conc. 10 X): −103.586 | IL-6 Measurements Mean (baseline subtracted) ([2]; Donor 3, Conc. 20 X): −122.656 | IL-6 Measurements Mean (baseline subtracted) ([2]; Donor 3, Conc. 40 X): −140.851 | LPS-induced IL-6 secretion, in words ([2]; Donor 1, 0.15 ng/mL LPS): significantly reduced | LPS-induced IL-6 secretion, in words ([2]; Donor 2, 0.15 ng/mL LPS): significantly reduced | LPS-induced IL-6 secretion, in words ([2]; Donor 3, 0.15 ng/mL LPS): significantly reduced

NC(=O)CC[C@H](N)C(=O)O [Glutamine, L-Glutamine]
MCP1/CCL2 secretion, in words [1]: significantly decrease | IL-6 Measurements, Mean ([2]; Conc. 3747 μM): 291.5443 | IL-6 Measurements, Mean ([2]; Conc. 11242 μM): 397.1745 | IL-6 Measurements, Mean ([2]; Conc. 22484 μM): 440.1437 | IL-6 Measurements Mean (baseline subtracted) ([2]; Donor 3, Conc. 749 μM (baseline)): 3.79E−14 | IL-6 Measurements Mean (baseline subtracted) ([2]; Donor 3, Conc. 3747 μM): 25.35 | IL-6 Measurements Mean (baseline subtracted) ([2]; Donor 3, Conc. 11242 μM): 98.4903 | IL-6 Measurements Mean (baseline subtracted) ([2]; Donor 3, Conc. 22484 μM): 108.5158 | LPS-induced IL-6 secretion, in words ([2]; Donor 1, 0.15 ng/mL LPS): increased | LPS-induced IL-6 secretion, in words ([2]; Donor 2, 0.15 ng/mL LPS): increased | LPS-induced IL-6 secretion, in words ([2]; Donor 3, 0.15 ng/mL LPS): significantly increased

CC(C)[C@H](N)C(=O)O [Valine, L-Valine]
MCP1/CCL2 secretion, in words [1]: did not have an effect | IL-6 Measurements, Mean ([2]; Conc. 4684 μM): −85.9843 | IL-6 Measurements, Mean ([2]; Conc. 11710 μM): −97.25 | IL-6 Measurements, Mean ([2]; Conc. 23420 μM): −106.268 | IL-6 Measurements Mean (baseline subtracted) ([2]; Donor 3, Conc. 234 μM (baseline)): 4.26E−14 | IL-6 Measurements Mean (baseline subtracted) ([2]; Donor 3, Conc. 4684 μM): −30.0609 | IL-6 Measurements Mean (baseline subtracted) ([2]; Donor 3, Conc. 11710 μM): −43.8022 | IL-6 Measurements Mean (baseline subtracted) ([2]; Donor 3, Conc. 23420 μM): −29.2004

CC(C)C[C@H](N)C(=O)O [Leucine, L-Leucine]
MCP1/CCL2 secretion, in words [1]: did not have an effect | IL-6 Measurements, Mean ([2]; Conc. 3054 μM): 244.9743 | IL-6 Measurements, Mean ([2]; Conc. 7635 μM): −69.9873 | IL-6 Measurements, Mean ([2]; Conc. 15270 μM): 84.46 | LPS-induced IL-6 secretion, in words ([2]; Donor 2, 0.15 ng/mL LPS): increased

CC[C@H](C)[C@H](N)C(=O)O [Isoleucine, L-Isoleucine]
MCP1/CCL2 secretion, in words [1]: did not have an effect | IL-6 Measurements, Mean ([2]; Conc. 1328 μM): 25.98 | IL-6 Measurements, Mean ([2]; Conc. 3320 μM): −15.8843 | IL-6 Measurements, Mean ([2]; Conc. 6639 μM): −218.332 | IL-6 Measurements Mean (baseline subtracted) ([2]; Donor 3, Conc. 66 μM (baseline)): −6.69 | IL-6 Measurements Mean (baseline subtracted) ([2]; Donor 3, Conc. 1328 μM): −28.9897 | IL-6 Measurements Mean (baseline subtracted) ([2]; Donor 3, Conc. 6639 μM): −16.3663

N=C(N)NCCC[C@H](N)C(=O)O [Arginine, L-Arginine]
MCP1/CCL2 secretion, in words [1]: increased | LPS-induced IL-6 secretion, in words ([2]; Donor 1, 0.15 ng/mL LPS): increased
